Laboratory results published in PubChem BioAssay (NCI).
Where “and” joins values, the source holds several entries; their conditions need not be identical. Identical values can stand only once.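 In this assay, cells in 96-well plates receive the compound at five concentrations for 48 hours. Endpoints are linearly interpolated between the surrounding concentrations. GI50 marks 50% less growth. TGI is the concentration that stops growth completely.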 Where a SMILES comes first, the peptide text is derived from it. The star is where a group is joined. Cbz = O=C(OCc1ccccc1)*

What was measured:
Test in all cases: NCI tumour cell line growth inhibition, 48 h
[1] = tested on: DU-145 prostate
[2] = tested on: EKVX NSCLC
[3] = tested on: IGROV1 ovarian
[4] = tested on: K-562 leukemia
[5] = tested on: MALME-3M melanoma
[6] = tested on: MDA-MB-435
[7] = tested on: MDA-N
[8] = tested on: NCI-H226 lung
[9] = tested on: OVCAR-8 ovarian
[10] = tested on: UACC-257 melanoma
[11] = tested on: UO-31 renal

Row | SMILES | TGI [1] | TGI [2] | TGI [3] | TGI [4] [µM] | TGI [5] [µM] | TGI [6] | TGI [7] | TGI [8] [µM] | TGI [9] | TGI [10] | TGI [11] [µM] | GI50 [10] [µM]
1 | Cc1n[n+](Cc2ccccc2)c2sc(N)nn12 | > 100 µM | > 100 µM | > 100 µM | > 100 | > 100 | > 100 µM | > 100 µM | > 100 | > 100 µM | > 100 µM | > 100 | –
2 | S=C1NCCN1C(=S)Nc1ccccc1 | > 100 µM | > 100 µM | > 100 µM | > 100 | > 100 | > 100 µM | > 100 µM | > 100 | > 100 µM | > 100 µM | > 100 | –
3 | CC(=O)OC(CCC1(C)OC1COc1ccc(CCNC(=O)C=C(C)C)cc1)C(C)(C)OC(C)=O (stereo not given) | > 100 µM | > 100 µM | > 100 µM | > 100 | > 100 | 40.4 µM | 51.9 µM | > 100 | > 100 µM | 27.3 µM | > 100 | –
4 | C=CC1(CC[C@]2(c3ccc(OC)c(OC)c3)C=[N+]([O-])O[C@H](O[C@@H]3CCCC[C@H]3C(C)(C)c3ccccc3)C2)OCC(C)(C)CO1 | 49.9 µM | 45.5 µM | 23.7 µM | > 56.9 | 24.8 | > 51.1 µM | 24.7 µM | 38 | 40.6 µM | > 54.2 µM | > 48.7 | –
5 | OC(C/C=N/N=C/CC(O)(C(F)(F)Cl)C(F)(F)Cl)(C(F)(F)Cl)C(F)(F)Cl | > 10 µM | > 10 µM | > 10 µM | > 10 | > 10 | > 10 µM | > 10 µM | > 10 | > 10 µM | > 10 µM | > 10 | –
6 | NCCCNCCCCN1CCOC1=O | > 100 µM | > 100 µM | > 100 µM | > 100 | > 100 | > 100 µM | > 100 µM | > 100 | > 100 µM | > 100 µM | > 100 | –
7 | O=c1cc(CF)[nH]c(=S)[nH]1 | > 100 µM | > 100 µM | > 100 µM | > 100 | > 100 | > 100 µM | > 100 µM | > 100 | > 100 µM | > 100 µM | > 100 | –
8 | COCn1cnc2c(=O)nc(SC)n(-c3ccccc3)c21 | > 100 µM | > 100 µM | > 100 µM | > 100 | > 100 | > 100 µM | > 100 µM | > 100 | > 100 µM | > 100 µM | > 100 | –
9 | COc1cc2c(cc1O)NC(=O)[C@@H]1CCCN1C2=O | > 100 µM | > 100 µM | > 100 µM | > 100 | > 100 | > 100 µM | > 100 µM | > 100 | > 100 µM | > 100 µM | > 100 | –
10 | Cc1ccc(C(=O)NCc2ccccc2)cc1N=NN(C)C | > 100 µM | > 100 µM | > 100 µM | > 100 | > 100 | > 100 µM | > 100 µM | > 100 | > 100 µM | 88.2 µM | > 100 | –
11 | COC(=O)C1=C(OC)[C@H]2C#C/C=C\C#C[C@@H]3Nc4c(cc(O)c5c4C(=O)c4ccccc4C5=O)[C@]24O[C@@]34[C@H]1C | < 0.01 µM | 0.0335 µM | 0.167 µM | 0.0139 | 0.103 | 0.0448 µM | 0.0113 µM | < 0.01 | < 0.01 µM | 0.0363 µM | < 0.01 | –
12 | COc1ccc(N2C(=O)C(=O)N(c3ccc(N=Nc4ccccc4)cc3)C2=S)cc1 | 34.3 µM | 37 µM | 31.3 µM | > 100 | 33.8 | 48.9 µM | 40.3 µM | 48.4 | 35.6 µM | 34.3 µM | 30.3 | –
13 | NC1(CCNC(=O)c2ccccc2)CCN(C(=O)c2ccccc2)CC1 | > 100 µM | > 100 µM | > 100 µM | > 100 | > 100 | > 100 µM | > 100 µM | > 100 | > 100 µM | > 100 µM | > 100 | –
14 | CCCCCCCCCCCC(=O)OC[C@@H](C[As](=O)(O)O)OC(=O)CCCCCCCCCCC | 36.6 µM | 28.8 µM | 3.8 µM | > 55.1 | 8.84 | 15 µM | 15 µM | 34.1 | 23.6 µM | 31.7 µM | 27.9 | –
15 | CCOC(=O)c1ccc(-c2ccc(Cl)cc2)[nH]1 | > 10 µM | > 10 µM | > 10 µM | > 10 | > 10 | > 10 µM | > 10 µM | > 10 | > 10 µM | > 10 µM | > 10 | –
16 | O=C(Cn1c2ccc(Br)cc2c2nc3ccccc3nc21)NNC(=S)NC1CCCCC1 | 29.4 µM | 43.1 µM | 23.6 µM | 34.2 | 39.5 | 34.2 µM | 30.4 µM | 33.6 | 27.8 µM | 30 µM | 22.3 | –
17 | C(=Nc1ccc2c(c1)Cc1ccccc1-2)c1ccccn1 | > 100 µM | > 100 µM | > 100 µM | > 100 | > 100 | > 100 µM | > 100 µM | > 100 | > 100 µM | 79.1 µM | > 100 | –
18 | N[C@H](Cc1ccc2oc3cc(=O)c4ccccc4c-3nc2c1)C(=O)O | 51.7 µM | > 100 µM | > 100 µM | 71.2 | 38.5 | 30.3 µM | 38.1 µM | > 100 | > 100 µM | > 100 µM | > 100 | –
19 | CC(=O)Nc1c(C(=N)C#N)ncn1CCO | > 100 µM | > 100 µM | > 100 µM | > 100 | > 100 | > 100 µM | > 100 µM | > 100 | > 100 µM | > 100 µM | – | –

Row | SMILES | TGI [1] | TGI [2] | TGI [3] | TGI [4] [µM] | TGI [5] [µM] | TGI [6] | TGI [7] | TGI [8] [µM] | TGI [9] | TGI [10] | TGI [11] [µM] | GI50 [10] [µM]
20 | Cc1ccc2c(c1)CC1(Cc3cccc(C)c3C1=O)C2=O (stereo not given) | > 100 µM | > 100 µM | > 100 µM | > 100 | > 100 | > 10 µM | > 10 µM | > 100 | > 100 µM | > 100 µM | > 100 | –
21 | CN1CCCOC(c2ccc(Cl)cc2)O1 (stereo not given) | > 100 µM | > 100 µM | > 100 µM | > 100 | > 100 | > 100 µM | > 100 µM | > 100 | > 100 µM | > 100 µM | > 100 | –
22 | CN1CC=C(c2c(N)nc(N)[nH]c2=O)CC1 | > 100 µM | > 100 µM | > 100 µM | > 100 | > 100 | > 100 µM | > 100 µM | > 100 | > 100 µM | > 100 µM | > 100 | –
23 | O=C1C(Br)=CC2(C=C1Br)CCNC1=C2C(=O)c2ncccc2C1=O | 3.06 µM | 3.3 µM | 2.03 µM | 0.516 | 2.4 | 0.354 µM | 0.353 µM | 3.54 | 4.5 µM | 1.89 µM | 2.35 | –
24 | CCOC(=O)CCC(NC(=O)OCc1ccccc1)C(=O)NC(CCC(=O)OCC)C(=O)OCC (stereo not given) (Cbz-Glu(OEt)-Glu(OEt)-OEt; configuration not given here) | > 100 µM | > 100 µM | > 100 µM | > 100 | > 100 | > 100 µM | > 100 µM | > 100 | > 100 µM | > 100 µM | > 100 | –
25 | CN(C)CCCNc1ccc2ncn3c4ccc(O)cc4c(=O)c1c23 | 21.2 µM | 16.6 µM | 10.5 µM | 28 | 16 | 19.3 µM | 17.6 µM | 3.59 | 11.7 µM | 24.5 µM | 11.4 | –
26 | O=C1c2c(Br)sc(Br)c2C(=O)C1(O)O | > 100 µM | > 100 µM | > 100 µM | 79.8 | 34.6 | 38.9 µM | > 100 µM | > 100 | > 100 µM | 37.4 µM | 58.2 | –
27 | CC(NC(=O)Cc1ccccc1)NC(=O)C(C)C(=O)NCc1ccccc1 (stereo not given) | > 100 µM | > 100 µM | > 100 µM | > 100 | > 100 | > 100 µM | > 100 µM | 77.8 | > 100 µM | > 100 µM | > 100 | –
28 | NCCCN(CCCN)CCc1cn(C(=O)c2ccccc2)cn1 | 11.3 µM | 23.3 µM | 17.4 µM | > 37.4 | 33.8 | 14.3 µM | 40.5 µM | 26.1 | 56.3 µM | 25.2 µM | – | –
29 | CCC1CC(O)c2c(O)c3c(c(O)c2C1O)C(=O)c1cccc(O)c1C3=O (stereo not given) (tested in a mixture with another compound) | 0.135 µM and 0.651 µM | 0.0864 µM and 0.192 µM | 0.239 µM and 1.02 µM | 0.0319 | 0.0547 | 0.0713 µM and 0.0207 µM | 0.093 µM and 0.0639 µM | 0.0532 | 0.181 µM and 1.19 µM | 0.0941 µM and 0.0404 µM | 0.038 | 0.0101
30 | COc1ccc2nc(-c3ccccc3)c(=O)[nH]c2c1 | > 100 µM | > 100 µM | > 100 µM | > 100 | > 100 | > 100 µM | > 100 µM | > 100 | > 100 µM | > 100 µM | – | –
31 | O=c1[nH]nc(Cc2ccc(Cl)cc2)n1/N=C/c1cccs1 | > 100 µM | > 100 µM | 79.5 µM | > 100 | > 100 | > 100 µM | > 100 µM | > 100 | > 100 µM | > 100 µM | > 100 | –
32 | CCOc1cc(NC(C)=O)ccc1C(=O)NNS(=O)(=O)c1ccc(NC(C)=O)cc1 | > 100 µM | > 100 µM | > 100 µM | > 100 | > 100 | > 100 µM | 39.2 µM | 89.5 | > 100 µM | > 100 µM | > 100 | –
33 | CC(=O)SC(C[N+](=O)[O-])c1ccc2c(c1)OCO2 (stereo not given) | 33.7 µM | 52.5 µM | 19.8 µM | > 28.7 | 15.8 | 17.6 µM | 4.64 µM | 46 | 28.1 µM | 22.3 µM | 11.9 | –
34 | CCCCC1Cc2cc(O)ccc2-c2nc3cc(O)ccc3n21 (stereo not given) (tested in a mixture with another compound) | > 100 µM | 51.9 µM | 28.9 µM | 41.3 | 57.8 | 26.1 µM | 36.3 µM | 46.3 | 68.8 µM | 45.6 µM | 28.5 | –
35 | CCOC(=O)CCC(NC(=O)C(Cc1ccccc1)NC(=O)OCc1ccccc1)C(=O)OCC (stereo not drawn) (Cbz-Phe-Glu(OEt)-OEt; configuration not given here) | 22.3 µM | 39.1 µM | 32.3 µM | > 100 | 33.1 | 35.5 µM | 32.6 µM | 32.6 | 36.2 µM | 30.5 µM | 31.2 | –
36 | CS(=O)(=O)N1CC(CCl)c2ccc(O)cc21 (stereo not given) | 11.3 µM | 16.3 µM | 4.5 µM | > 100 | 5 | 3.86 µM | 3.54 µM | 6.83 | 7.33 µM | 5.95 µM | 5.79 | –
37 | O=P1(Cc2ccccc2)N(Cc2ccccc2)[C@@H]2CCCC[C@H]2N1Cc1ccccc1 | 27.1 µM | 22.4 µM | 19.4 µM | 19.2 | 32.4 | 19.8 µM | 19.8 µM | 4.63 | 23.8 µM | 20.1 µM | 19.7 | –
